pIC50: −log10 of the molar value.
Key:
[1] = tested on: H1N1 (influenza A/New Caledonia/20/99); test: microbe, parasite or virus in culture; assay type: cell-based; conditions: H1N1, A549, 48 h
UXF 1138 = test: Cytotoxicity, propidium iodide based monolayer assay; assay type: cell-based; conditions: 96 h; UXF 1138 uterine sarcoma, four days of treatment, T/C=50%; read-out: Absolute IC50
Experimental: The cytotoxicity was tested for compounds of the invention on five different cell-lines, namely LXFL 1121, MAXF 401, MMXF L-636, PRXF PC-3M and UXF 1138 which are respectively lung large cell carcinoma, breast adeno carcinoma, multiple myeloma, prostate adeno carcinoma and uterine sarcoma.
A working stock solution of the test compounds was prepared in DMSO at a concentration of 33 mM or 8.25 mM, and small aliquots were stored at −20° C. On each day of an experiment, a frozen aliquot of the working stock solution was thawed and stored at room temperature prior to and during treatment.
All liquid handling steps were performed using the Tecan Freedom EVO 200 platform. First, serial 2-fold dilutions of the 33 mM DMSO working stock solution were done in DMSO. The DMSO dilutions were then diluted 1:22 into cell culture medium in an intermediate dilution plate. Finally, 10 μl taken from the intermediate dilution plate were transferred to 140 μl/well of the final assay plate. Thus, the DMSO serial dilutions were diluted 1:330 with cell culture medium, and the DMSO concentration in the assay was 0.3% v/v.
Cell lines were routinely passaged once or twice weekly and maintained in culture for up to 20 passages. Most cell lines were grown at 37° C. in a humidified atmosphere with 5% CO2 in RPMI 1640 medium (25 mM HEPES, with L-glutamine, #FG1385, Biochrom, Berlin, Germany) supplemented with 10% (v/v) fetal calf serum (Sigma, Taufkirchen, Germany) and 0.05 mg/mL gentamicin (Life Technologies, Karlsruhe, Germany).
A modified propidium iodide (PI) based monolayer assay was used to assess the anti-cancer activity of the compounds. Briefly, cells were harvested from exponential phase cultures, counted and plated in 96 well flat-bottom microtiter plates at a cell density of 4,000 to 40,000 cells/well dependent on the cell line's growth rate. The individual seeding density for each cell line ensure exponential growth conditions over the whole or at least the bigger part of the treatment period. After a 24 h recovery period, to allow the cells to resume exponential growth, 10 μl of culture medium (6 control wells/cell line/plate) or of culture medium with test compounds were added. Compounds were applied at ten concentrations in 2-fold increments in duplicates up to 25 μM or 100 μM and treatment continued for four days. After four days of treatment, cells were next washed with 200 μl PBS to remove dead cells and debris, then 200 μl of a solution containing 7 μg/ml propidium iodide (PI) and 0.1% (v/v) Triton X-100 was added. After an incubation period of 1-2 hours at room temperature, fluorescence (FU) was measured using the Enspire Multimode Plate Reader (excitation λ=530 nm, emission k=620 nm) to quantify the amount of attached viable cells.
Drug effects were expressed in terms of the percentage of the fluorescence signal, obtained by comparison of the mean signal in the treated wells with the mean signal of the untreated controls (expressed by the test-versus-control value, T/C−value [%]):
[formula] IC values reported reflect the concentration of the test compound that achieves T/C=50%. Calculation was done by 4 parameter non-linear curve fit.

[2] = molecular target: T1, CISD1 Gene Product (mitoNEET) (Homo sapiens, UniProt Q9NZ45); test: Stability of Fe-S cluster binding of purified NEET protein (absorbance 458 nm); assay type: biochemical; conditions: for Residual cluster bound at end of experiment (Percentage Absorbance 458 nm at time zero): pH 6, at 180 minutes, vehicle control 16%; for Stabiliser or destabiliser of Fe-S cluster binding by CISD1 Gene Product (mitoNEET): time to 50% cluster loss changed by more than 25% compared to the Control sample, at the concentrations tested
T1 sequence (Q9NZ45 33-108 limits assumed): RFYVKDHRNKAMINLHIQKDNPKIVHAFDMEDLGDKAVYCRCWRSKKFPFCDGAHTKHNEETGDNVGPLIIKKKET
Experimental: (§1) The modulator effect on the NEET proteins encoded by human CISD1, CISD2, and CISD3 genes by the compounds of the invention has been tested and is reported below. Particularly, the biochemical function of the NEET proteins is measured by the stability of Fe—S cluster binding of the purified NEET proteins.
(§2) The Fe—S cluster binding capacity of NEET proteins is known to be coordinated by four amino-acids in a stretch of 16 (three Cysteine and one Histidine). As the lability of the Fe—S cluster of NEET proteins is sensitive to the environment, cluster stability measurements are one of the measures of interactions of NEET proteins with small molecules and compounds. NEET protein/2Fe-2S cluster stability can be assessed by monitoring the decay in absorbance of its characteristic 458-nm peak (characteristic of the oxidized 2Fe-2S cluster) over time. Each NEET protein (mitoNEET, NAF-1 and Miner 2) was tested for its Fe—S binding in the absence or presence of a compound according to the invention (see table 4 below). The rate of cluster release (time in minutes to achieve 50% loss of bound Fe—S cluster) was compared for each NEET protein in the presence of one of the compounds of the invention (in a 1:3 protein:compound molar ratio) relative to each protein alone.
(§3) At pH 6, all the three NEET proteins (mitoNEET, NAF-1 and Miner 2) have a characteristic rate of loss of the bound Fe—S cluster that can be measured by the decrease of absorbance at wavelength 458 nm over time, using a spectrophotometer. Thus, Bis-Tris buffer (100 mM Bis-Tris pH6, 100 mM Nacl) was used at pH 6 to dilute either DMSO (Blank sample: Bis-Tris Buffer pH 6, 66 μM DMSO), DMSO and one of the three NEET proteins (Control sample: Bis-Tris Buffer pH 6, 66 μM DMSO, 20 μM purified NEET protein) or DMSO, one of the three NEET proteins and a compound of the invention (Test sample: Bis-Tris Buffer pH 6, 66 μM DMSO, 20 μM purified NEET protein, 60 μM compound of the invention).
(§4) A reaction mix containing DMSO diluted in the Bis-Tris Buffer with or without a compound of the invention was prepared. The purified NEET protein was the last component added to the reaction mix which was then aliquoted into 4 replicates in 96 wells plates. The absorbance at wavelength 458 nm was taken at 5 minutes intervals at 37° C. with a spectrofluorimeter. The assay run time for CISD2 gene product (NAF-1) was 500 minutes and 180 minutes for both the CISD1gene product (mitoNEET) and the CISD3 gene product (Miner2).
(§5) In addition to time monitoring, residual bound Fe—S cluster to NEET protein was measured at the final point of the spectrometry assay for each Test sample and compared to the Control sample data (in parenthesis table 4). This residual binding is measured by the differential percentage between the absorbance 458 nm at time zero and the absorbance 458 nm at the end of the experiment (i.e. respectively 500 or 180 minutes as described here above), showing the percentage of NEET protein still able to bind a Fe—S cluster.
(§6) Analysis of the absorbance enables the time for which 50% loss of bound Fe—S cluster is reached (i.e. a 50% absorbance decrease at 458 nm) for each Test sample and each Control sample (in parenthesis table 4) to be determined. The data are then compared to determine whether the compound of the invention stabilizes or destabilizes the NEET protein/Fe—S cluster binding.

[3] = molecular target: T2, CISD2 Gene Product (NAF-1) (Homo sapiens, UniProt Q8N5K1); test: as above; assay type: biochemical; conditions: for Time (in minutes) to achieve 50% loss of bound cluster (Absorbance 458 nm) / Residual cluster bound at end of experiment (Percentage Absorbance 458 nm at time zero): NAF-1 20 μM, compound 60 μM; for Time (in minutes) to achieve 50% loss of bound cluster (Absorbance 458 nm): pH 6, 37° C., run time 500 minutes, vehicle control 310 or 210; for Residual cluster bound at end of experiment (Percentage Absorbance 458 nm at time zero): pH 6, at 500 minutes, vehicle control 3%
T2 sequence (Q8N5K1 57-135 limits assumed): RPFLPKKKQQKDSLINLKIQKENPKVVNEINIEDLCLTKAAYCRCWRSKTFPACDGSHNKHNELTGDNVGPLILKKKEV
Experimental: as §1, §2, §3, §4, §5, §6

[4] = molecular target: T3, CISD3 Gene Product (Miner2) (Homo sapiens, UniProt P0C7P0); test: as above; assay type: biochemical; conditions: for Residual cluster bound at end of experiment (Percentage Absorbance 458 nm at time zero): CISD3 gene product 20 μM, pH 6, at 180 minutes, vehicle control 11%; for Stabiliser or destabiliser of Fe-S cluster binding by CISD3 Gene Product (Miner2): time to 50% cluster loss changed by more than 25% compared to the Control sample, at the concentrations tested
T3 sequence (P0C7P0 15-127): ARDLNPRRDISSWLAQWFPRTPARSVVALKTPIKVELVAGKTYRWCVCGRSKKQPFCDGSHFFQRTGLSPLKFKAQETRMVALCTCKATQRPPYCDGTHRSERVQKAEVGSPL
Experimental: as §1, §2, §3, §4, §5, §6

West Nile Virus = test: Antiviral effect in infected Huh7 cells, plaque assay on VeroE6; assay type: cell-based, WNV stain New-York 99; conditions: Huh-7, MOI of 0,1 pfu per cell, supernatants 48 h post infection
Experimental: Compound #18 was tested on other viruses. The NEET protein modulators are capable of inhibiting other viruses such as West Nile Virus, Dengue and Zika with a high efficiency.
Assays were performed with the following strains/serotypes: • DENV serotype 2 strain New Guinea C • ZIKV strain MR766 • WNV stain New-York 99
1×10^5 Huh7 cells were infected with DENV, ZIKV, or WNV at a MOI of 0,1 pfu per cell in presence of the test compound. Two hours post-infection the inoculum was removed and cells washed twice with PBS 1×. Fresh medium containing the test compound was added. Supernatants were harvested 48 h post infection, filtered through a 0.45 μm pore membrane and directly used for plaque assays.
VeroE6 cells were infected with serial dilutions of virus supernatants. Two hours post-infection inoculum was replaced by serum-free MEM medium (Gibco, Life Technologies) containing 1.5% carboxymethyl cellulose (Sigma-Aldrich). At different days post infection (day 3 for WNV, day 4 for ZIKV, day 7 for DENV) cells were fixed by addition of formaldehyde to a final concentration of 5%. Cells were stained with crystal violet solution (1% crystal violet, 10% ethanol in H2O) for 30 min at room temperature and extensively rinsed with H2O. Infectious titers were calculated considering the corresponding dilution factor.

Dengue = test: microbe, parasite or virus in culture; assay type: cell-based, DENV serotype 2 strain New Guinea C; conditions: Huh-7, 48 h
Zika = test: Antiviral effect in infected Huh7 cells, plaque assay on VeroE6; assay type: cell-based, ZIKV strain MR766; conditions: Zika virus, Huh-7, MOI of 0,1 pfu per cell, supernatants 48 h post infection

SMILES | pIC50 [1] | pIC50 (UXF 1138) | Time (in minutes) to achieve 50% loss of bound cluster (Absorbance 458 nm) ([2]; mitoNEET 20 μM, compound 60 μM, pH 6, 37° C., run time 180 minutes, vehicle control 80) | Residual cluster bound at end of experiment (Percentage Absorbance 458 nm at time zero) ([2]; mitoNEET 20 μM, compound 60 μM) | Stabiliser or destabiliser of Fe-S cluster binding by CISD1 Gene Product (mitoNEET) [2] | Time (in minutes) to achieve 50% loss of bound cluster (Absorbance 458 nm) [3] | Residual cluster bound at end of experiment (Percentage Absorbance 458 nm at time zero) [3] | Stabiliser or destabiliser of Fe-S cluster binding by CISD2 Gene Product (NAF-1) ([3]; time to 50% cluster loss changed by more than 25% compared to the Control sample, at the concentrations tested) | Residual cluster bound at end of experiment (Percentage Absorbance 458 nm at time zero) ([4]; compound 60 μM) | Time (in minutes) to achieve 50% loss of bound cluster (Absorbance 458 nm) ([4]; Miner2 20 μM, compound 60 μM, pH 6, 37° C., run time 180 minutes, vehicle control 60) | Stabiliser or destabiliser of Fe-S cluster binding by CISD3 Gene Product (Miner2) [4] | pIC50 (West Nile Virus) | pIC50 (Dengue) | pIC50 (Zika)
COCCNc1ccc(C(=O)Nc2sc3c(c2C(=O)O)CC(C)(C)CC3(C)C)cc1 [Compound #60, 2-[[4-(2-Methoxyethylamino)benzoyl]amino]-5,5,7,7-tetramethyl-4,6-dihydrobenzothiophene-3-carboxylic acid] | 8.00 | 6.07 | 100 (80) minutes | 35% (16%) | stabilisers | 120 (310) minutes | 12% (3%) | destabilisers | 38% (11%) | 90 (60) minutes | Stabilisers |  |  | 
COc1ccc(C(=O)Nc2sc3c(c2C(=O)O)CCC(C)(C)C3)cc1OC [Compound #18, 2-[(3,4-Dimethoxybenzoyl)amino]-6,6-dimethyl-5,7-dihydro-4H-benzothiophene-3-carboxylic acid] | 7.30 |  |  | 62% (16%) | stabilisers | 425 (310) minutes | 42% (3%) |  | 70% (11%) |  | Stabilisers | 5.60 | 5.30 | 5.52

From US11492347B2 (ENYO PHARMA, priority 2018, dated 2022)
